Measured values: US12472193B2, “Methods and compositions for treating and preventing respiratory related diseases and conditions with xylitol-headgroup lipid analogs” (National Jewish Health, priority 2017, dated 2025)
Entries after “also recorded” stand apart in the source; their conditions may differ. Read-outs that look alike come from different tables or passages of the source.

Columns and labels:
[1] = Procedure: 18:1 DEPX was prepared as liposomes so that 500 μg of lipid was delivered in a 50 μL volume. 6-week old female BALB/C mice were purchased from Jackson laboratories and divided into groups of 5. Each group was inoculated with 500 μg of 18:1 DEPX by intranasal inoculation. Groups of 5 mice were sacrificed and lavaged at the following time points: 0 hours, 3 hours, 6 hours, 18 hours and 24 hours. Lipids were extracted from mice BALF by Bligh-Dyer (“A rapid method of total lipid extraction and purification.,” Can. J. Biochem. Physiol., vol. 37, no. 8, pp. 911-7, August 1959), and quantified by phosphorus analysis. 150 nmol of lipid extracted from each mouse was separated by lipid class utilizing the Touchstone solvent system (refer to methods) and thin layer chromatography. 0.1% ANSA and UV light was used to visualize lipids from the thin layer chromatogram. Individual xylitol lipid bands were cut out from the silica and quantified by phosphorus analysis.
To determine how quickly 18:1 DEPX turns over in the mouse lung, female BALB/C mice that were 6-8 weeks old were inoculated with 500 μg of lipid by intranasal delivery in a 50 μL volume. Mice were sacrificed at time periods of, 0 hours, 3 hours, 6 hours, 18 hours and 24 hours following lipid delivery and bronchoalveolar lavage fluid (BALF) was collected. Lipids were extracted from BALF by the Bligh-Dyer method and total lipid extracts were quantified by phosphorus analysis (G. Rouser, et al., “Quantitative analysis of phospholipids by thin-layer chromatography and phosphorus analysis of spots.,” Lipids, vol. 1, no. 1, pp. 85-6, January 1966). To separate the various lipid classes present in BALF, thin layer chromatography on a Merck Silica 60 glass plate with a touchstone solvent system was utilized. The silica plate was scored in lanes according to number of samples, 150 nmol of total lipid was spotted onto each lane and solvent was developed for 90 minutes. The plate was air dried and sprayed with 0.1% ANSA-water then exposed to UV light to reveal migration of lipids on the plate. The spots corresponding to xylitol lipids were cut out and quantified by phosphorous analysis.
Because toxicity of the synthetic phospholipid, 18:1 DEPX, is unknown lower levels of lipid were delivered to mice to determine if the diether lipid persists in the mouse lung after 24 hours. The previous experiment was repeated with 250 μg, 150 μg and 75 μg 18:1 DEPX delivered to mice. 250 μg was used as a starting point for mice sacrificed at 0 hours following lipid delivery. Subsequently groups of mice given 250 μg, 150 μg and 75 μg of 18:1 DEPX were sacrificed 24 hours following intranasal delivery of lipid. Mouse lungs were lavaged 2 times with 1 mL PBS. Total lipids were extracted by the Bligh-Dyer method from BALF and separated on a Merck Silica 60 glass plate using a touchstone solvent system for separation of lipids by headgroup. Xylitol lipid spots were excised from the silica and quantified by phosphorus assay.

[2] = system: RSV; assay: 18:1 DEPX interference with RSV infection in vivo (BALB/c mice); design: species or system mouse
Procedure: Six-week-old female BALB/c mice were obtained from Jackson Laboratory. Mice were anesthetized with isoflurane and through intranasal inoculation a 50 μL volume of PBS control, 18:1 DEPX lipid alone, 18:1 DEPX+RSV or RSV only was delivered to mice. Mice were infected with 1×10^7 pfu/mL RSV. 18:1 DEPX liposomes were delivered to mice at a final amount of 100 μg. For lipid antagonism, RSV and 18:1 DEPX were mixed together in PBS prior to inoculation. Five days following initial infection, mice were euthanized by asphyxiation with carbon dioxide following prescribed guidelines by the IACUC. Next, mice were dissected to expose the trachea where a small cut was made to insert a luer stub. The lungs were then lavaged with 1 mL of saline. The chest cavity was opened and the lungs perfused with PBS and then removed. The left lung was homogenized in 1 mL of serum-free DMEM, the homogenates were centrifuged at 3800 rcf for 15 minutes at 4° C. and supernatant was used for quantitative plaque assay analysis. Lower right lungs were fixed overnight in 10% buffered formalin, then dehydrated and paraffin-embedded. Lungs were then sliced and stained with Hematoxylin-Eosin (H&E) for microscopy pictures and histopathological scoring. Total cell counts were determined from BALF and cell types were assessed by cytospin. IFN-γ was quantified by ELISA from the cell-free supernatants of BALF. The upper right lung was homogenized, RNA was extracted, converted to cDNA and RSV replication was determined by quantitative PCR of the F protein.
Female BALB/C mice were obtained from Jackson Laboratories at 6 weeks of age. The experiment consisted of four groups, a PBS control, 18:1 DEPX liposomes alone, 18:1 DEPX liposomes+RSV and RSV alone. Mice were inoculated with RSV at 1×10^7 pfu/mL. 100 μg 18:1 DEPX was the dose tested for protective effects in the mouse lung. Each mouse group underwent intranasal inoculation for delivery of experimental conditions in a final volume of 50 μL. Mice were monitored daily and body weight was recorded. At the height of RSV infection on day 5, the mice were euthanized. Bronchoalveolar lavage fluid (BALF) was collected, the chest cavity was opened and the lungs removed. The left lobe of the lungs was homogenized in serum-free DMEM, centrifuged at 3800 rcf for 15 minutes at 0° C. and the supernatant collected for quantitative plaque assay described in the previous chapter. The lower right lobe of the lung was fixed overnight in 10% buffered formalin and then processed by paraffin embedding, slicing and fixing of the lung to a microscope slide and H&E staining. The upper right lobe of the lung was homogenized, RNA was extracted and converted to cDNA and then quantitative real-time PCR was used to determine RSV replication by quantification of the F protein. Cells within BALF were quantified and assessed for cell populations by cytospin. BALF supernatant was stored and subsequently used for IFNγ quantification.
On day 5 following RSV infection mice were sacrificed by carbon dioxide asphyxiation according to IACUC protocol. Mice were dissected to expose the trachea where a small cut was made for the insertion of a leur stub and the lungs were lavaged with 1 mL of saline. A 20 μL aliquot was obtained from BALF collected and cellular infiltration into the lungs was quantified using a hemocytometer. The remaining lavage fluid was centrifuged at 500×g for 5 minutes, supernatant was collected and cells were resuspended in PBS for cytospin. In studies shown in FIG. 11, mice were challenged with either saline (CNTL), or 10^7 virus (RSV), or virus plus 18:1 DEPX (18:1 DEPX+RSV), or lipid alone (18;1 DEPX). The mice received all agents in a volume of 50 μl applied intranasally. On day 6 the mice were euthanized and the lungs were lavaged with saline. The cells in the lavage were recovered by centrifugation and quantified by counting using a hemocytometer. In RSV infected mice cell numbers were ˜120×10^4. […]

[3] = 18:1 DEPX alone, 100 μg intranasal

CCCCCCCCC=CCCCCCCCCOCC(COP(=O)(O)OCC(O)C(O)C(O)CO)OCCCCCCCCC=CCCCCCCCC (mixture of isomers) [18:1 DEPX, sn-1-O-octadecenyl, sn-2-O-octadecenyl sn-3 glycerol phosphoxylitol]
xylitol lipid recovered from BALF ([1]; 75 μg intranasal, 24 hours): 10 µg | xylitol lipid recovered from BALF ([1]; 150 μg intranasal, 24 hours): 15 µg | xylitol lipid recovered from BALF ([1]; 250 μg intranasal, 0 hours): Around 40 μg | xylitol lipid recovered from BALF ([1]; 250 μg intranasal, 24 hours): around 20 μg | 18:1 DEPX detected in recovered lavage ([1]; 500 μg intranasal, 24 hours): about 20 nmol | 18:1 DEPX in 150 nmol of total BALF lipid loaded ([1]; 500 μg intranasal, time zero): approximately 42 nmol | half-life in the mouse lung ([1]; intranasal): around 24 hours | starting material recovered after 24 hours ([1]; mice): 50% | daily body weight, lipid alone vs control mice [2, 3]: no difference in daily body weight | number of cells in lavage, lipid alone vs control [2, 3]: no difference in number of cells | IFNγ in BALF compared to RSV alone ([2]; 18:1 DEPX+RSV mice): reduced; also recorded: significantly lower | cell numbers in lavage ([2]; 18:1 DEPX+RSV mice, 1 mL BALF, FIG. 11): ~20×10^4 | IFNγ in BALF ([2]; 18:1 DEPX+RSV mice, day 5): Around 1 ng/mL | cellular infiltration into the lungs (BALF) ([2]; 18:1 DEPX+RSV vs RSV alone): suppresses an overabundance of cellular infiltration; also recorded: decreased number of inflammatory cellular infiltrates; also recorded: suppresses influx of inflammatory cells; also recorded: reduced cellular infiltrates; also recorded: significantly lower amounts of cellular infiltrates | reduction of viral plaque number ([2]; 18:1 DEPX+RSV vs RSV alone): 50% | lung histopathology ([2]; 18:1 DEPX+RSV vs RSV alone, H&E): appeared less affected by the virus | reduction in RSV expression (qPCR) ([2]; first viral challenge experiment): 2.6 fold | reduction of RSV expression by a factor of (qPCR) ([2]; latter two experiments): 6.2 | viral load / RSV infection in lung compared to RSV mice ([2]; plaque assay and qPCR): reduces viral copy number; also recorded: inhibited RSV infection; also recorded: reduced viral load
